Source: publication PMC9616048, “Thermal proteome profiling reveals Haemonchus orphan protein HCO_011565 as a target of the nematocidal small molecule UMW-868” (Frontiers in Pharmacology, 2022)
“Also recorded” adds a separate entry of the source.

Assays:
[1] = tested on: H. contortus fourth-stage larvae (L4s) development; assay: Dose-response evaluation, L4 development; format: cell-based, Haemonchus contortus; settings: Haemonchus contortus; 168 h, analog series; read-out: L4 development inhibition (IC50 in µM)
Description: (§1) These evaluations were carried out to estimate the half-maximal inhibitory concentrations (IC50 values) for hit compounds against H. contortus xL3s. With reference to the two positive-control compounds (monepantel and moxidectin), IC50 values for compounds were estimated ([Preston et al., 2015]; [Taki et al., 2021a]) using two-fold serial dilution (in LB*; 9 points from 50 μM to 0.2 µM) in 96-well plates (cat. no. 3596; Corning) with larvae at a density of 300 H. contortus xL3s in 100 µl per well. Plates containing H. contortus xL3s were incubated at 38°C, 10% (v/v) CO2 and >90% relative humidity.
(§2) The motility of H. contortus xL3s and L4 development were measured following 168 h of incubation with compound ([Taki et al., 2021a]). Compound concentrations were log10-transformed and fitted using a variable slope four-parameter equation, constraining the highest value to 100% employing a least squares (ordinary) fit model using GraphPad Prism software (v.9.1.2). Compounds were tested by three independent experiments in triplicate. A one-way analysis of variance (ANOVA) with a Tukey’s multiple comparison test or an unpaired t-test was used to establish statistically significant differences in larval motility or development.

[2] = tested on: H. contortus xL3s; assay: Dose-response evaluation, xL3 motility; format: cell-based; settings: Haemonchus contortus, 168 h, analog series; read-out: xL3 motility reduction (IC50 in µM)
Description: as §1
as §2, with “Compound” for “The motility of H. contortus xL3s and L4 development were measured following 168 h of incubation with compound ([Taki et al., 2021a]). Compound”

[3] = tested on: mitochondria of HepG2 human hepatoma cells; assay: Mitochondrial toxicity in HepG2 cells (galactose medium); format: cell-based; settings: HepG2, 48 h
Description: (§3) The toxicities of compounds on cell and mitochondria were assessed to estimate their half-maximal cytotoxic concentrations (CC50) and half-maximal mitotoxic concentrations (MC50), respectively. HepG2 human hepatoma cells were seeded into wells of a 96-well plate at a density of 5.5 × 10^4 cells per well in 80 µl of Dulbecco’s modified eagle medium (DMEM; with GlutaMax™ cat. no. 10566016 or 4 mM L-glutamine cat. no. 11966025; Thermo Fisher Scientific), supplemented with 25 mM D-glucose (cytotoxicity) or D-galactose (mitotoxicity), 10% (v/v) inactivated foetal bovine serum (iFBS), 100 IU/ml of penicillin, 100 μg/ml of streptomycin and 0.25 μg/ml of amphotericin B (designated DMEM*). Cells were allowed to adhere for 16 h at 37°C and 5% (v/v) CO2 at > 90% relative humidity, then, incubated for 48 h with individual, serially-diluted compounds (two-fold serial dilution in DMEM*; […]) in a final volume of 100 µl. For the assessment of toxicity on mitochondria, cells were starved of serum (DMEM* without iFBS) for 4 h prior to the 48 h-incubation with compounds ([Swiss and Will, 2011]; [Kamalian et al., 2015]). Two positive control compounds, doxorubicin (cytotoxic control) and M-666 (mitotoxic control) were each added to three individual wells in each 96-well plate at a single concentration of 10 µM. DMEM* + 0.25% (v/v) DMSO was added to 12 wells in each plate as negative controls. Monepantel and moxidectin were also serially diluted — prepared in the same manner as test compounds — and used as (“non-toxic”) reference compounds. After 48 h of incubation, cell viability was determined by the crystal violet staining method ([Śliwka et al., 2016]). The absorbance (595 nm) of treated cells was normalised with reference to the negative control (100% viability). To determine the CC50 and MC50 values, compound concentrations were log10-transformed, baseline-corrected using a respective positive control (doxorubicin or M-666) and fitted using a variable slope four-parameter equation with a least squares (ordinary) fit model using GraphPad Prism software (v.9.1.2). Compounds and controls were tested in triplicate.

[4] = tested on: eggs of H. contortus; assay: Egg hatch assay; format: cell-based; settings: Haemonchus contortus, 48 h; read-out: Egg hatch inhibition (IC50 in µM)
Description: Compounds were also assessed for their effect on the hatching of eggs of H. contortus in vitro. To do this, eggs were isolated from the faeces from sheep with patent (30 day-) H. contortus infection by sucrose flotation ([Mes et al., 2007]). Eggs were suspended in H2O at a concentration of one egg per µl. The eggs were dispensed into wells (in triplicate; 100 eggs per well) and incubated with two-fold serial dilutions (9 points from 50 μM to 0.2 µM in H2O) of individual test or control compounds for 48 h at 27°C and >90% relative humidity; wells with no compound were also included. The numbers (percentages) of eggs from which first-stage larvae (L1s) hatched were counted using a light microscope (M80, Leica) at a 40-times magnification. With reference to positive-control compounds (i.e., monepantel and moxidectin), IC50 values of compounds were calculated.

[5] = Cellular toxicity in HepG2 cells (crystal violet); format: cell-based, human; settings: human, HepG2 human hepatoma cells; HepG2, 48 h; read-out: Cytotoxicity (48 h) CC50
Description: as §3

[6] = tested on: H. contortus xL3s; assay: Cell lethality in xL3s (Sytox Green staining); format: cell-based, Haemonchus contortus
Description: Fluorescence staining was employed to assess the ability of UMW-868 to reduce the viability of H. contortus. The xL3s were dispensed in 96-well plates at a density of 300 xL3 per well, and incubated with compounds UMW-868 or A-3155, non-active analogs of UMW-868, at 50 μM at 38°C, 10% (v/v) CO2 and >90% relative humidity. After 90 h of incubation, H. contortus xL3s were stained with Sytox Green nucleic acid stain (Thermo Fisher Scientific) at the final concentration of 1 µM in LB* in the same 96-well plates and incubated for 1 h at 38°C and 10% (v/v) CO2 with >90% relative humidity. Following the incubation, the viability of larvae was evaluated by measuring the relative fluorescent units (RFU) of xL3s using an Omega FLUOstar microplate reader (BMG Labtech), with excitation and emission wavelengths set at 485 nm and 520 nm, respectively. The 96-well plates containing the stained larvae were returned to the incubator for further 78 h; after a total of 168 h of compound exposure, the stained larvae were examined under an inverted fluorescence microscope (DM IL, Leica) equipped with a green fluorescent protein filter (470/500/525 […]; Leica), and imaged using Leica Application Suite software (Leica).

[7] = tested on: H. contortus xL3 to L4 development; assay: High throughput screen, larval development and phenotype at 168 h; format: cell-based, Haemonchus contortus; settings: Haemonchus contortus, development to L4
Description: Following the measurement of xL3 motility, plates were incubated again for 78 h (i.e., a total of 168 h) under the same conditions. Thereafter, 40 µl of 1% (v/v) iodine were added to individual wells, and worms examined using a light microscope (M80, Leica) at 60-times magnification to assess larval development, based on the presence/absence of a well-developed pharynx ([Sommerville, 1966]), and/or phenotypic alterations with respect to untreated xL3s.

[8] = tested on: exsheathed third-stage larvae (xL3s) of H. contortus; assay: High throughput screen, xL3 motility (infrared light beam-interference); format: cell-based; settings: Haemonchus contortus, 90 h, read-out: Motility reduction at 90 h (%)
Description: An established platform was used for compound screening ([Taki et al., 2021a]). Using a semi-automated liquid handling robot (VIAFLO ASSIST PLUS, Integra Biosciences), compounds were individually diluted to […] in LB* containing 0.2% (v/v) DMSO and then dispensed in 20 µl into the wells of sterile 384-well flat bottom microtitre plates (cat. no. 3680; Corning); 320 compounds were arrayed on each plate, with 16 wells being negative controls (with LB* + 0.2% DMSO) and four wells containing each monepantel (Zolvix; Elanco), moxidectin (Cydectin; Virbac), monepantel + abamectin (Zolvix Plus; Elanco) and compound MIPS-0018666 (abbreviated here as M-666) ([Le et al., 2018]) as positive controls (20 µM). Following the dilution and dispensing of compounds into plates, 80 H. contortus xL3s in 20 μl of LB* were transferred to individual wells; after this step, the final concentrations were 20 µM of test- or positive-control compound, and 0.2% of DMSO. During dispensing, xL3s were maintained in a homogenous suspension using a constant stream of bubbles produced employing an aquarium pump (H2Pro). Plates containing H. contortus xL3s were incubated at 38 °C, 10% (v/v) CO2 and >90% relative humidity.
After 90 h of incubation with compounds (20 μM), H. contortus xL3s motility was measured for 15 min in individual wells of each plate by infrared light beam-interference ([Simonetta and Golombek, 2007]) using a WMicroTracker ONE instrument (Phylumtech). Raw data captured were normalised against measurements obtained for the positive (monepantel) and negative (LB* + 0.2% DMSO) controls to remove plate-to-plate variation by calculating the percentage of motility using the program GraphPad Prism (v.9.1.2; GraphPad Software). A compound was considered active (“hit”) if it reduced larval motility by ≥ 70%. To continually assess the performance of the screening assay, the Z′-factor ([Zhang et al., 1999]) was calculated (using data for the DMSO and the M-666 controls) for individual plates (n = 43) and was consistently ≥0.7; reliable assays achieve a Z′-factor of between 0.5 and 1. The signal to background (S/B) ratio (for the same controls) ([Sui and Wu, 2007]) was consistently >200.

In the case of CCCc1ccc(-c2nc(-c3ccccc3)no2)cc1 [Compound A-3126], the IC50 [1] is reported as 50 µM, the IC50 [2] is reported as 12.1 µM and the “Mitotoxicity (48 h) MC50” value [3] is reported as > 50.0 µM. The IC50 [4] was 13.1 µM and the CC50 at 48 h [5] was > 50 µM.

In the case of CCOc1ccc(-c2nc(-c3cccs3)no2)cc1 [Compound A-3134], the IC50 [1] is reported as > 50 µM, the IC50 [2] is reported as 7.8 µM and the “Mitotoxicity (48 h) MC50” value [3] is reported as > 50.0 µM. For the same compound, the IC50 [4] was > 50 µM and the CC50 at 48 h [5] was > 50 µM.

For CCCc1ccc(-c2nc(-c3ccc(C)cc3)no2)cc1 [Compound A-3136], the IC50 [1] was 12.5 µM, the IC50 [2] was 4.8 µM and the “Mitotoxicity (48 h) MC50” value [3] was > 50.0 µM. The IC50 [4] was 7.5 µM and the CC50 at 48 h [5] was > 50 µM.

In the case of NC(=O)c1ccc(-c2nc(-c3cccs3)no2)cc1 [Compound A-3155], the “lethality / viability of xL3s (in words)” value ([6]; 90 h) is reported as “remained viable; also recorded: non-lethal” and the “dead cells detected microscopically in xL3s (Sytox Green)” value ([6]; 168 h of exposure) is reported as “no dead cells were detected”.

For FC(F)Oc1ccc(-c2nc(-c3cccs3)no2)cc1 [Compound A-4340, 5-(4-(Difluoromethoxy)phenyl)-3-(thiophen-2-yl)-1,2,4-oxadiazole], the IC50 [1] was 25 µM, the IC50 [2] was 4 µM and the “Mitotoxicity (48 h) MC50” value [3] was > 50.0 µM. For the same compound, the IC50 [4] was > 50 µM and the CC50 at 48 h [5] was > 50 µM.

For c1ccc(-c2nc(-c3cccs3)no2)cc1 [Compound A-4347, 5-Phenyl-3-(thiophen-2-yl)-1,2,4-oxadiazole], the IC50 [1] was > 50 µM, the IC50 [2] was > 50 µM and the “Mitotoxicity (48 h) MC50” value [3] was > 50.0 µM. The IC50 [4] was > 50 µM and the CC50 at 48 h [5] was > 50 µM.

In the case of FC(F)(F)Oc1ccc(-c2nc(-c3cccs3)no2)cc1 [Compound A-6316, 3-(Thiophen-2-yl)-5-(4-(trifluoromethoxy)phenyl)-1,2,4-oxadiazole], the IC50 [1] is reported as > 50 µM, the IC50 [2] is reported as 9.8 µM and the “Mitotoxicity (48 h) MC50” value [3] is reported as > 50.0 µM. The IC50 [4] was > 50 µM and the CC50 at 48 h [5] was > 50 µM.

With CCCc1ccc(-c2nc(-c3ccc(OC)cc3)no2)cc1 [Compound A-6318, 3-(4-Methoxyphenyl)-5-(4-propylphenyl)-1,2,4-oxadiazole] the IC50 [1] was 1.6 µM, the IC50 [2] was 1.4 µM and the “Mitotoxicity (48 h) MC50” value [3] was 48.2 µM. For the same compound, the IC50 [4] was 38 µM and the CC50 at 48 h [5] was > 50 µM.

For FC(F)Oc1ccc(-c2nc(-c3ccc(C(F)(F)F)cc3)no2)cc1 [Compound A-6325, 5-(4-(Difluoromethoxy)phenyl)-3-(4-(trifluoromethyl)phenyl)-1,2,4-oxadiazole], the IC50 [1] was 3.1 µM, the IC50 [2] was 1.4 µM and the “Mitotoxicity (48 h) MC50” value [3] was 36.3 µM. The IC50 [4] was > 50 µM and the CC50 at 48 h [5] was > 50 µM.

In the case of CCCc1ccc(-c2nc(-c3ccc(C(F)(F)F)cc3)no2)cc1 [Compound A-6501], the IC50 [1] is reported as 6.3 µM, the IC50 [2] is reported as 1.6 µM and the “Mitotoxicity (48 h) MC50” value [3] is reported as > 50.0 µM. For the same compound, the IC50 [4] was > 50 µM and the CC50 at 48 h [5] was > 50 µM.

With CCOC(=O)c1ccc(Oc2ccc(Cl)cc2Cl)c([N+](=O)[O-])c1 [MBHF-hit36, ethyl 4-(2,4-dichlorophenoxy)-3-nitrobenzoate] the inhibition at 20 µM [7] was < 80% and the inhibition at 20 µM [8] was 70.2%.

In the case of c1ccc(-c2noc(-c3cccs3)n2)cc1 [Tioxazafen, 3-Phenyl-5-(thiophen-2-yl)-1,2,4-oxadiazole, reference compound], the IC50 [1] is reported as > 50 µM, the IC50 [2] is reported as > 50 µM and the “Mitotoxicity (48 h) MC50” value [3] is reported as > 50.0 µM. For the same compound, the IC50 [4] was > 50 µM and the CC50 at 48 h [5] was > 50 µM.
